What was measured:
[1] = test system: bone marrow-derived macrophages; assay: Bone marrow-derived macrophages treated in vitro with or without LPS; conditions: for macrophage viability (MTT dye reduction): presence or absence of LPS
Procedure: Identification of how risperidone alters pro-inflammatory and/or anti-inflammatory immune responses is necessary.
Studies were conducted herein to evaluate the regulation of macrophage proinflammatory responses in vitro.

[2] = Body weight of treated normal and immunized mice; conditions: for body weight in normal mice: normal (unimmunized) mice
prolactin = assay: Serum prolactin in treated mice; type: in vivo; conditions: for serum prolactin: immunized and unimmunized mice
cholinergic receptors = conditions: cited from earlier work
al-adrenergic receptors = conditions: cited from earlier work
EAE [3] = assay: EAE model in IL-4Ra-deficient BALB/c mice; type: in vivo; conditions: BALB/c mice deficient in IL-4Ra
[4] = test system: splenic macrophages (F4/80+ cells); assay: Activation markers on splenic macrophages of immunized mice at peak disease (flow cytometry); type: in vivo, C57BL/6 mice; conditions: risperidone 3 mg/kg/day
Procedure: Studies were also conducted herein to evaluate the regulation of macrophage proinflammatory responses in vivo.

microglia = assay: Microglial reactivity by Iba-1 expression in brains of immunized mice; type: in vivo
Procedure: FIG. 9A illustrates exemplary Iba-1 expression on microglia in the cerebellum of mice. […] Tissue samples were taken at peak disease (15 days post immunization). Shown are the scores for microglia reactivity (Iba score) and disease.
One group (risperidone d11) was immunized but only received risperidone treatment starting at day 11 (i.e. after disease onset). Scores for Iba-1 reactivity were assessed blinded and derived from a combined score for Iba intensity (0-3) and # Iba+ foci (0-3).
Scores for Iba-1 reactivity were assessed blinded and derived from a combined score (0-6) for Iba intensity (0-3) and number of Iba+ foci (0-3). Scores for the following brain regions were combined: cerebellum, brain stem, hippocampus, and olfactory bulb (0-24).
Scores for Iba-1 reactivity in the cerebellum were assessed blinded and derived from a combined score (0-6) for Iba intensity (0-3) and number of Iba+ foci (0-3).
Studies were performed to assess microglial reactivity via the expression of Iba-1 (FIG. 9A-F).

EAE [5] = test system: EAE
Procedure: FIG. 1A illustrates an exemplary treatment of C57BL/6 mice with risperidone (administered in drinking water; 3 mg/kg/day) following immunization to induce EAE with MOG (myelin oligodendrocyte glycoprotein) peptide in complete Freund's adjuvant. Disease score is based on the progressive ascending paralysis that characterizes EAE in this animal model where 0=normal and 5=complete body paralysis (i.e. moribund).
FIG. 1B illustrates an exemplary treatment of C57BL/6 mice with risperidone (administered in drinking water; 3 mg/kg/day) following immunization to induce EAE. The data is from 4 separate and independent experiments.
AUC was measured from days 0-26 and the results are from 4 separate and independent experiments.
In these preliminary studies risperidone was given in the drinking water at a calculated dose of 1 or 3 mg/kg/day.
Commonly this time period is between 13-20 days post immunization with myelin oligodendrocyte glycoprotein (50 μg/mouse) in complete Freund's adjuvant and injected i.p with pertussis toxin (200 ng/mouse) on days 0 and 2. Treatment during the “chronic” stage (when disease scores remain stable) may begin 30 days post immunization with myelin oligodendrocyte glycoprotein. For all of these studies, the optimal dose of risperidone may be used as determined by the experiments described above. […] This model is well established and has the added benefit of having many different immunological reagents available for use in the C57BL/6 system.

splenocytes = assay: Cellular profile of spleen in treated mice (flow cytometry); type: in vivo, C57BL/6 mice
Description: (§1) The effect of drug treatment on antigen-specific immune responses can be determined at 8 (pre-onset), […] draining lymph node (LN) cells and splenocytes from untreated and risperidone-treated, immunized or unimmunized mice. Cytokine production in response to myelin oligodendrocyte glycoprotein antigen (MOG) can be assessed by cytokine bead assay, which measures 10 cytokines simultaneously, or ELISA, and proliferation can be measured by ^3H thymidine uptake. Cellular profiles in the spleen and lymph node cells can be determined by flow cytometric analysis and can include markers for helper T cells, T regulatory cells, and macrophages.

α2-adrenergic receptors = conditions: cited from earlier work
[6] = Pajonk, 2004, cited from earlier work
[7] = test system: auto-reactive T cell responses; assay: Cytokine production and T cell proliferation in response to MOG antigen or ConA, cells from treated immunized mice; type: cell-based, C57BL/6 mice
Description: (§2) Shown are the mean and standard error of the mean (n=5 mice per group).
as §2, §2, §2, §2, §2
FIG. 5A illustrates exemplary antigen specific (L-17 production (pg/ml) in C57BL/6 mice, which were treated with risperidone or vehicle alone, and immunized to induce EAE 40 days earlier. Shown are the mean and standard error of the mean (n=5-10 mice per group).
FIG. 5B illustrates exemplary antigen specific interferon y production (pg/ml) in C57BL/6 mice, which were treated with risperidone or vehicle alone, and immunized to induce EAE 40 days earlier. Shown are the mean and standard error of the mean (n=5-10 mice per group).
FIG. 5C illustrates exemplary antigen specific IL-10 production (pg/ml) in C57BL/6 mice, which were treated with risperidone or vehicle alone, and immunized to induce EAE 40 days earlier. Shown are the mean and standard error of the mean (n=5-10 mice per group).
FIG. 5D illustrates exemplary T cell proliferation in counts per minute in immunized and normal C57BL/6 mice, which were treated with risperidone or vehicle alone. Shown are the mean and standard error of the mean (n=5-10 mice per group).
as §1, with “drug” for “drug treatment on antigen-specific immune responses can be determined at 8 (pre-onset),”

[8] = target: dopaminergic D2 receptors (Homo sapiens, UniProt P14416); conditions: cited from earlier work
Sequence of dopaminergic D2 receptors (P14416 whole entry): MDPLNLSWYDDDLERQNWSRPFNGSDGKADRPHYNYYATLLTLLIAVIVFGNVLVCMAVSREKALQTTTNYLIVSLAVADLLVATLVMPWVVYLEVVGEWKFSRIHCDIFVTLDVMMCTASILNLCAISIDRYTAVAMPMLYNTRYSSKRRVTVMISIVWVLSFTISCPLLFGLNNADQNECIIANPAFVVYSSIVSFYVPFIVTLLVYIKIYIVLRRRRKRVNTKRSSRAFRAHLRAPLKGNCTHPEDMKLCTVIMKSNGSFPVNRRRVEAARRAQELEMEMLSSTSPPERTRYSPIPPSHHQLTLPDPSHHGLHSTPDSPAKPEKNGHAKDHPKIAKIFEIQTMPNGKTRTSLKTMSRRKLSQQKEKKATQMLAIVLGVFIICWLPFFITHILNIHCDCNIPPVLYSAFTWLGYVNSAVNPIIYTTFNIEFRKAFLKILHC

EAE [9] = assay: EAE model in BALB/c mice immunized with PLP peptide
[10] = test system: bone marrow-derived macrophages; conditions: positive control; La Flamme, unpublished results; cited from earlier work
[11] = 20 μg/ml risperidone or 10 μ/ml clozapine
[12] = 20 μg/ml risperidone or 10 μ/ml clozapine, versus vehicle-treated macrophages
[13] = chronic stage of disease, 40 days after immunization
[14] = chronic stage, 40 days post immunization
[15] = peak disease, 21 days post immunization

**Q.** For CN1CCN(C2=Nc3cc(Cl)ccc3Nc3ccccc32)CC1 [clozapine], which “macrophage viability (MTT dye reduction)” value [1, 11] is on record?
**A.** fully viable

**Q.** And the “body weight in normal mice” value [2]?
**A.** promotes weight gain

**Q.** And the serum prolactin (prolactin)?
**A.** not observed

**Q.** For Cc1nc2n(c(=O)c1CCN1CCC(c3noc4cc(F)ccc34)CC1)CCCC2 [risperidone, 3-[2-[4-(6-fluoro-1,2-benzisoxazol-3-yl)-1-piperidinyl]ethyl]-6,7,8,9-tetrahydro-2-methyl-4H-pyrido[1,2-a]pyrimidin-4-one], which “macrophage viability (MTT dye reduction)” value [1, 11] is on record?
**A.** fully viable

**Q.** What about the “IL-12 production in response to LPS” value [1, 12] of the same molecule?
**A.** produce less

**Q.** What about the “NO production in response to LPS” value [1, 12] of the same molecule?
**A.** produce less

**Q.** And the “IL-10 production in response to LPS” value ([1]; risperidone 20 μg/ml, versus vehicle-treated macrophages)?
**A.** produce more

**Q.** And the “affinity for cholinergic receptors” value (cholinergic receptors)?
**A.** no affinity

**Q.** What about the “binding to al-adrenergic receptors” value (al-adrenergic receptors) of the same molecule?
**A.** binds

**Q.** And the “reduction in disease symptoms” value (EAE [3])?
**A.** do not experience a reduction in disease symptoms

**Q.** What about the “% incidence versus vehicle” value (EAE [3]; 2 independent experiments) of the same molecule?
**A.** no difference in % incidence

**Q.** And the “weight loss associated with EAE” value ([2]; mice immunized with MOG peptide)?
**A.** reduce the weight loss

**Q.** And the “body weight in normal mice” value [2]?
**A.** promotes weight gain

**Q.** And the “CD40 expression on splenic macrophages” value [4]?
**A.** reduced CD40 expression

**Q.** What about the “number of CD40-expressing splenic macrophages” value [4] of the same molecule?
**A.** not reduced

**Q.** What about the “MHC class II expression on splenic macrophages” value ([4]; clozapine 30 mg/kg/day, versus vehicle-treated immunized mice) of the same molecule?
**A.** reduced MHC class II expression

**Q.** And the “microglial reactivity (Iba-1 expression)” value (microglia; immunized mice, peak disease (15 days post immunization), cerebellum, brain stem, hippocampus, olfactory bulb)?
**A.** greatly reduced

**Q.** And the “microglial reactivity (Iba-1 expression), treatment after disease onset” value (microglia; treatment starting at day 11 post-immunization, assessed on day 15)?
**A.** reduces microglial reactivity

**Q.** What about the “protective effect in dose-response” value (EAE [5]; 3 mg/kg/day, p<0.0001 by 2-way ANOVA) of the same molecule?
**A.** significant protective effect

**Q.** What about the “area under the curve (AUC), total disease burden” value (EAE [5]; AUC of disease score, risperidone days 0-26, 4 independent experiments) of the same molecule?
**A.** reduction

**Q.** And the “average disease score during the chronic stage” value (EAE [5]; drinking water from one day before immunization)?
**A.** stable reduction

**Q.** What about the “detrimental effects on the mice” value (EAE [5]; risperidone 1 or 3 mg/kg/day, immunized or unimmunized mice, aside from slight weight gain) of the same molecule?
**A.** no detrimental effects

**Q.** What about the “efficacy of higher versus lower dose” value (EAE [5]; risperidone 3 vs 1 mg/kg/day, clozapine 30 vs 15 mg/kg/day) of the same molecule?
**A.** 3 mg/kg/day is more effective

**Q.** What about the “time of onset or incidence of EAE” value (EAE [5]; risperidone daily from the time of immunization) of the same molecule?
**A.** does not alter

**Q.** What about the “number of helper T cells (CD4+CD25−) in the spleen” value (splenocytes; [13]) of the same molecule?
**A.** does not alter

**Q.** What about the “number of neutrophils (Gr1+ cells) in the spleen” value (splenocytes; [13]) of the same molecule?
**A.** reduce

**Q.** And the “number of regulatory T cells (CD4+CD25+ Treg) in the spleen” value (splenocytes; [13])?
**A.** enhance

**Q.** What about the “overall immune cells in the spleen (total splenocyte numbers)” value (splenocytes; peak disease (day 21), risperidone 3 mg/kg/day, clozapine 30 mg/kg/day, unimmunized and immunized mice) of the same molecule?
**A.** does not result in overall loss

**Q.** And the “affinity for α2-adrenergic receptors” value (α2-adrenergic receptors)?
**A.** lower affinity

**Q.** What about the “maximum tolerated dose in mice” value [6] of the same molecule?
**A.** unable to identify a maximum tolerated dose

**Q.** What about the toxicity ([6]; mice treated daily with doses up to 10 mg/kg/day for 18 months) of the same molecule?
**A.** no toxicity

**Q.** What about the “serum prolactin (hyperprolactinemia)” value (prolactin; BALB/c mice) of the same molecule?
**A.** develop hyperprolactinemia

**Q.** What about the “serum/plasma prolactin (hyperprolactinemia)” value (prolactin; IL-4Ra-deficient BALB/c mice) of the same molecule?
**A.** develop hyperprolactinemia

**Q.** What about the serum prolactin (prolactin) of the same molecule?
**A.** high levels of serum prolactin

**Q.** And the “production of IL-10 with polyclonal stimulus (ConA)” value ([7]; 21 days post immunization)?
**A.** no alteration

**Q.** What about the “production of INF-γ with polyclonal stimulus (ConA)” value ([7]; 21 days post immunization) of the same molecule?
**A.** no alteration

**Q.** What about the “MOG specific IFN-γ production” value [7, 14] of the same molecule?
**A.** enhance

**Q.** And the “MOG-specific IL-10 production” value [7, 14]?
**A.** no effect

**Q.** And the “MOG-specific IL-17 production” value [7, 14]?
**A.** no effect

**Q.** And the MOG-specific proliferation [7, 14]?
**A.** no effect

**Q.** And the “production of IFN-γ in response to MOG antigen” value [7, 15]?
**A.** does not alter

**Q.** And the “production of IL-10 in response to MOG antigen” value [7, 15]?
**A.** significantly reduce

**Q.** What about the “production of IL-17 in response to MOG antigen” value [7, 15] of the same molecule?
**A.** significantly reduce

**Q.** And the “affinity for dopaminergic D2 receptors” value [8]?
**A.** high affinity

**Q.** And the “% incidence” value (EAE [9]; 2 independent experiments, same for vehicle group)?
**A.** 73%

**Q.** What about the disease severity (EAE [9]; oral, from one day before immunization with PLP) of the same molecule?
**A.** significantly reduced disease severity

**Q.** With Glatiramer acetate as the molecule, how does the “pro-inflammatory (IL-12) cytokine production by LPS-stimulated macrophages” value [10] read?
**A.** reduce

Reference: US20130190299A1, “METHODS AND COMPOSITIONS FOR TREATMENT OF MULTIPLE SCLEROSIS” (Victoria Link Ltd., priority 2010, published 2013)
